{"source": "ChEMBL document CHEMBL1156210", "about": "“Discovery of tertiary sulfonamides as potent liver X receptor antagonists” (J Med Chem, 2010)", "key": {"[1]": {"target": "T1, Oxysterols receptor LXR-alpha (Homo sapiens, UniProt Q13133)", "T1 sequence (Q13133 whole entry)": "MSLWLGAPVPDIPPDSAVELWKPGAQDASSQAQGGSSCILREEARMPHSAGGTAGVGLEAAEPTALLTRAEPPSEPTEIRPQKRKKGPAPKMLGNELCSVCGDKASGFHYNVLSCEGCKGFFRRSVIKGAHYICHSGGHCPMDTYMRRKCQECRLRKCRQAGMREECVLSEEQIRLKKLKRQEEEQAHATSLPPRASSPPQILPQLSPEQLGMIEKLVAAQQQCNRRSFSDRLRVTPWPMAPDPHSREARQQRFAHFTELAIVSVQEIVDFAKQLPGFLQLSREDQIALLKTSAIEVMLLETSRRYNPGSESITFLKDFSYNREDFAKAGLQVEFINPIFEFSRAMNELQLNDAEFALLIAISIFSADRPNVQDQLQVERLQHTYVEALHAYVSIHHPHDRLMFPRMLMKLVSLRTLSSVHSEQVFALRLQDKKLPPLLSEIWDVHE", "assay": "(§1) Agonist activity at LXRalpha ligand binding domain-mediated transcriptional activity in african green monkey CV1 cells co-transfected with Gal4-SRC1 by luciferase reporter assay", "assay_type": "cell-based, CV-1"}, "[2]": {"target": "T2, Oxysterols receptor LXR-beta (Homo sapiens, UniProt P55055)", "T2 sequence (P55055 whole entry, the tested form may be a part)": "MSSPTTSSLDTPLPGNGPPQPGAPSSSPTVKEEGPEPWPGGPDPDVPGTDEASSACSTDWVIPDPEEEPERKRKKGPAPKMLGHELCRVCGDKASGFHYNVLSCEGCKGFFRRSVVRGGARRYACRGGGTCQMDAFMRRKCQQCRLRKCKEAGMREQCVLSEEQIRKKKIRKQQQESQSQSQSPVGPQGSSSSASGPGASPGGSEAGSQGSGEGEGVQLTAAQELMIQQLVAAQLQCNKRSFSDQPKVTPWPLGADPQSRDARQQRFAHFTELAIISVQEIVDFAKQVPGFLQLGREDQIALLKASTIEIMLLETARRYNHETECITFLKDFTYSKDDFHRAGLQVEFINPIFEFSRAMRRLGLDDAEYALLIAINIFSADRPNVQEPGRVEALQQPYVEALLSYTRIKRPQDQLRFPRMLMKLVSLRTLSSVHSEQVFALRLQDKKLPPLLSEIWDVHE", "assay": "Displacement of [N-methyl-3H]T1317 from human biotinylated LXRbeta LBD after 3 hrs by LEAD seeker binding assay"}, "[3]": {"target": "T2, Oxysterols receptor LXR-beta", "assay": "Agonist activity at LXRbeta ligand binding domain-mediated transcriptional activity in african green monkey CV1 cells co-transfected with Gal4-SRC1 by luciferase reporter assay", "assay_type": "cell-based, CV-1"}, "[4]": {"target": "T2, Oxysterols receptor LXR-beta", "conditions": "CV-1"}, "[5]": {"tested_on": "THP-1", "assay": "Inhibition of ABCA1 expression in human THP1 cells", "assay_type": "functional, cell-based"}, "[6]": {"target": "T3, Oxysterols receptor LXR-alpha (Homo sapiens) (UniProt Q13133)", "T3 sequence (whole entry)": "T1 sequence (Q13133 whole entry)", "assay": "as §1", "assay_type": "cell-based", "conditions": "CV-1"}, "[7]": {"tested_on": "HepG2", "assay": "Inhibition of basal triglyceride level in human HepG2 cells"}, "[8]": {"tested_on": "HepG2", "assay": "Inhibition of GW-3965-induced SREBP-1c expression in human HepG2 cells", "assay_type": "functional, cell-based"}, "[9]": {"tested_on": "HepG2", "assay": "Inhibition of SREBP-1c expression in human HepG2 cells", "assay_type": "functional, cell-based"}}, "note": "Active and inactive are the calls of the source. The rule behind the calls is not given here."}
{"smiles": "CS(=O)(=O)c1cccc(-c2ccc(CN(Cc3c(F)cccc3Cl)S(=O)(=O)c3ccccc3)cc2)c1", "values": [{"measurement": "EC50", "setting": "[1]", "result": 0.00631, "unit": "µM"}]}
{"smiles": "CS(=O)(=O)c1cccc(-c2ccc(CN(Cc3c(F)cccc3Cl)S(=O)(=O)C3CC3)cc2)c1", "values": [{"measurement": "EC50", "setting": "[1]", "result": 0.1, "unit": "µM"}]}
{"smiles": "Fc1ccc(CN(Cc2ccccc2)Cc2ccc(-c3ccccc3)cc2)c(Cl)c1", "values": [{"measurement": "IC50", "setting": "[2]", "result": "> 10", "unit": "µM"}]}
{"smiles": "CS(=O)(=O)c1cccc(-c2ccc(CN(Cc3ccc(F)cc3Cl)S(=O)(=O)c3ccccc3)cc2)c1", "values": [{"measurement": "EC50", "setting": "[1]", "result": 0.01, "unit": "µM"}]}
{"smiles": "Cc1cc(C)c(S(=O)(=O)N(Cc2ccc(-c3cccc(S(C)(=O)=O)c3)cc2)Cc2c(F)cccc2Cl)c(C)c1", "values": [{"measurement": "EC50", "setting": "[1]", "result": 0.0794, "unit": "µM"}]}
{"smiles": "O=C(O)Cc1cccc(OCCCN(Cc2cccc(C(F)(F)F)c2Cl)CC(c2ccccc2)c2ccccc2)c1", "values": [{"measurement": "IC50", "setting": "[2]", "result": 0.0199, "unit": "µM"}, {"measurement": "EC50", "setting": "[3]", "result": 0.1, "unit": "µM"}]}
{"smiles": "Cc1cc(C)c(S(=O)(=O)N(Cc2ccc(-c3cccc(S(C)(=O)=O)c3)cc2)Cc2ccc(C(F)(F)F)o2)c(C)c1", "values": [{"measurement": "pEC50", "setting": "[4]", "result": "inactive"}, {"measurement": "IC50", "setting": "[5]", "result": "< 0.1", "unit": "µM"}, {"measurement": "pEC50", "setting": "[6]", "result": "inactive"}, {"measurement": "IC50", "setting": "[2]", "result": 0.0316, "unit": "µM"}, {"measurement": "Activity", "setting": "[7]", "result": "Active"}, {"measurement": "Activity", "setting": "[8]", "result": "Dose-dependent effect"}, {"measurement": "IC50", "setting": "[9]", "result": "< 0.1", "unit": "µM"}]}
{"smiles": "Cn1cnc(S(=O)(=O)N(Cc2ccc(-c3cccc(S(C)(=O)=O)c3)cc2)Cc2c(F)cccc2Cl)c1", "values": [{"measurement": "EC50", "setting": "[1]", "result": 0.0794, "unit": "µM"}]}
{"smiles": "O=C(c1ccccc1)N(Cc1ccc(-c2ccccc2)cc1)Cc1ccc(F)cc1Cl", "values": [{"measurement": "IC50", "setting": "[2]", "result": "> 10", "unit": "µM"}]}
{"smiles": "Cc1ccccc1S(=O)(=O)N(Cc1ccc(-c2cccc(S(C)(=O)=O)c2)cc1)Cc1c(F)cccc1Cl", "values": [{"measurement": "EC50", "setting": "[1]", "result": 0.0126, "unit": "µM"}]}
{"smiles": "Cc1cc(C)c(S(=O)(=O)N(Cc2ccc(-c3cccc(S(C)(=O)=O)c3)cc2)Cc2ccc(F)cc2Cl)c(C)c1", "values": [{"measurement": "EC50", "setting": "[1]", "result": 0.126, "unit": "µM"}]}
